Results from US9828342B2, “Isatin derivatives, pharmaceutical compositions thereof, and methods of use thereof” (CITY OF HOPE, priority 2012, dated 2017).
Read-outs that look alike come from different tables or passages of the source.

How the values were obtained:
Assay type in all cases: cell-based
[1] = test system: DU145 prostate cancer cells; experiment: MTS cell viability assay in DU145 prostate cancer cells
Protocol: (§1) Then, MTS assays for cell viability were carried out to determine the IC50 values. Four samples were tested for each isatin derivative at each concentration in each cell line, and the averaged data were shown in Table 2a and FIGS. 1˜4.
(§2) IC50 of values of isatin derivatives Compounds 101˜123 were determined in cancer cell lines DU145 and A2058 respectively.

[2] = test system: A2058 human melanoma cells; experiment: MTS cell viability assay in A2058 melanoma cells
Protocol: as §1, §2

[3] = test system: A2780 cisplatin-resistant ovarian cancer cells; experiment: MTS cell viability assay in A2780 cisplatin-resistant ovarian cancer cells; settings: Homo sapiens, A2780, 48 h, A2780 cisplatin-resistant, 48 hr, 1% DMSO, MTS
Protocol: (§3) Each type of cells (5,000 or 10,000 cells/well) were treated with different concentration (0.1 μM to 20 μM in 1% DMSO of cisplatin or Compound 2, 9, 12, 16 or 22 respectively for 48 hr). Then, MTS assays for cell viability were carried out to determine the IC50 values. Four samples were tested for each test compound at each concentration for each type of cells, and the averaged data were shown in Table 4 and FIGS. 6-8.

[4] = test system: OVCAR5 ovarian cancer cells; experiment: MTS cell viability assay in OVCAR5 ovarian cancer cells; settings: Homo sapiens, OVCAR-5, OVCAR5, 48 hr, 1% DMSO
Protocol: as §3

[5] = Homo sapiens, DU-145, 48 h, DU145, 48 hr, 0.05 to 10 μM in 1% DMSO, MTS (Table 2a), read-out: DU145 IC50
[6] = Homo sapiens, A2058, 48 h, 0.05 to 10 μM in 1% DMSO, MTS (Table 2a), read-out: A2058 IC50
[7] = Homo sapiens, DU-145, 48 h, DU145, compound in DMSO, 48 hr, MTS (Table 2b), read-out: IC50 value, DMSO, DU145
[8] = Homo sapiens, A2058, 48 h, A2058, compound in DMSO, 48 hr, MTS (Table 2b), read-out: IC50 value, DMSO, A2058
[9] = DU145, compound in DMSO, 48 hr, MTS (Table 2b), read-out: IC50 value, DMSO, DU145
[10] = A2058, compound in DMSO, 48 hr, MTS (Table 2b), read-out: IC50 value, DMSO, A2058
[11] = Homo sapiens, DU-145, 48 h, DU145, compound in water, 48 hr, MTS (Table 2b), read-out: IC50 value, Water, DU145
[12] = Homo sapiens, A2058, 48 h, A2058, compound in water, 48 hr, MTS (Table 2b), read-out: IC50 value, Water, A2058

O=C1C(=O)N(Cc2ccccc2)c2cc(-c3ccccc3)ccc21 [Compound 1]
IC50 [1, 5]: > 10000 nM | IC50 [2, 6]: > 10000 nM

O=C1C(=O)N(Cc2ccccc2)c2cc(Br)ccc21 [Compound 3, N-benzyl-6-bromoindoline-2,3-dione]
IC50 [1, 5]: 8500 nM | IC50 [2, 6]: 8400 nM

O=C1C(=O)N(Cc2ccccc2)c2ccc(I)cc21 [Compound 4, N-benzyl-5-iodoindoline-2,3-dione]
IC50 [1, 5]: 2400 nM | IC50 [2, 6]: 3800 nM

O=C1C(=O)N(Cc2ccccc2)c2cccc(Br)c21 [Compound 5]
IC50 [1, 5]: > 10000 nM | IC50 [2, 6]: > 10000 nM

C[Si](C)(C)CCOCN1C(=O)C(=O)c2cc(I)ccc21 [Compound 6]
IC50 ([1]; Homo sapiens, DU-145, DU145, 48 hr, 0.05 to 10 μM in 1% DMSO, MTS (Table 2a), read-out: DU145 IC50): 4600 nM | IC50 ([2]; Homo sapiens, A2058, 48 hr, 0.05 to 10 μM in 1% DMSO, MTS (Table 2a), read-out: A2058 IC50): 6900 nM

CN1C(=O)C(=O)c2cc(-c3cccnc3)ccc21 [Compound 7]
IC50 [1, 5]: 4300 nM | IC50 [2, 6]: 4200 nM

O=C1C(=O)N(CCc2ccccc2)c2ccc(-c3cccnc3)cc21 [Compound 8]
IC50 [1, 5]: 5000 nM | IC50 [2, 6]: > 5000 nM

O=C1C(=O)N(CCO)c2ccc(-c3cccnc3)cc21 [Compound 10]
IC50 [1, 5]: > 5000 nM | IC50 [2, 6]: > 5000 nM

O=C1C(=O)N(CCOCCO)c2ccc(-c3cccnc3)cc21 [Compound 11]
IC50 [1, 5]: > 5000 nM | IC50 [2, 6]: > 5000 nM

O=C1C(=O)N(Cc2cccs2)c2ccc(-c3cccnc3)cc21 [Compound 12, N-(2-Thienylmethyl)-5-(pyridin-3-yl)indoline-2,3-dione]
IC50 [1, 5]: 910 nM | IC50 [3]: 900 nM | IC50 [2, 6]: 2000 nM | IC50 [4]: 2200 nM

O=C1C(O)c2cc(-c3cccnc3)ccc2N1Cc1ccccc1 (stereo not shown) [Compound 13, N-Benzyl-3-hydroxy-5-(pyridin-3-yl)indoline-2-one]
IC50 [1, 5]: 2500 nM | IC50 [2, 6]: 2300 nM

CC(=O)OC1C(=O)N(Cc2ccccc2)c2ccc(-c3cccnc3)cc21 (stereo not shown) [Compound 14, 3-Acetoxy-N-Benzyl-5-(pyridin-3-yl)indoline-2-one]
IC50 [1, 5]: > 5000 nM | IC50 [2, 6]: > 5000 nM

O=C1Cc2cc(-c3cccnc3)ccc2N1Cc1ccccc1 [Compound 15, N-Benzyl-5-(pyridin-3-yl)indoline-2-one]
IC50 [1, 5]: > 5000 nM | IC50 [2, 6]: > 5000 nM

O=C1C(=O)N(Cc2ccsc2)c2ccc(-c3cccnc3)cc21 [Compound 16, N-(3-Thienylmethyl)-5-(pyridin-3-yl)indoline-2,3-dione]
IC50 [1, 5]: 900 nM | IC50 [3]: 500 nM | IC50 [2, 6]: 1800 nM | IC50 [4]: 1700 nM

Cc1ccc2c(c1)C(=O)C(=O)N2CCCc1ccccc1 [Compound 19]
IC50 [1, 5]: > 5000 nM | IC50 [2, 6]: > 5000 nM

CCCc1ccc2c(c1)C(=O)C(=O)N2CCCc1ccccc1 [Compound 20]
IC50 [1, 5]: > 5000 nM | IC50 [2, 6]: 2500 nM

CC(C)c1ccc2c(c1)C(=O)C(=O)N2CCCc1ccccc1 [Compound 21]
IC50 [1, 5]: > 5000 nM | IC50 [2, 6]: 3200 nM

O=C1C(=O)N(CCCc2ccccc2)c2ccc(-c3ccccc3)cc21 [Compound 23]
IC50 [1, 5]: 4200 nM | IC50 [2, 6]: 5900 nM

O=C1C(=O)N(CCCc2ccccc2)c2ccc(-c3ccsc3)cc21 [Compound 24]
IC50 [1, 5]: 2500 nM | IC50 [2, 6]: 2900 nM

O=C1C(=O)N(CCCc2ccccc2)c2ccc(-c3ccco3)cc21 [Compound 25]
IC50 [1, 5]: 1500 nM | IC50 [2, 6]: 2000 nM

O=C1C(=O)N(CCCc2ccccc2)c2ccc(-c3cncnc3)cc21 [Compound 26]
IC50 [1, 5]: 530 nM | IC50 [2, 6]: 700 nM

O=C1C(=O)N(C/C=C/c2ccccc2)c2ccc(-c3cncnc3)cc21 [Compound 27]
IC50 [1, 5]: 360 nM | IC50 [2, 6]: 400 nM

O=C1C(=O)N(CCCc2ccccc2)c2ccc(-c3ccncc3)cc21 [Compound 28]
IC50 [1, 5]: 1300 nM | IC50 [2, 6]: 1600 nM

O=C1C(=O)N(C/C=C/c2ccccc2)c2ccc(-c3ccc(F)nc3)cc21 [Compound 29]
IC50 [1, 5]: 330 nM | IC50 [2, 6]: 300 nM

O=C1C(=O)N(C/C=C/c2ccccc2)c2ccc(-c3ccsc3)cc21 [Compound 30]
IC50 [1, 5]: 870 nM | IC50 [2, 6]: 1400 nM

O=C1C(=O)N(C/C=C/c2ccccc2)c2ccc(-c3cccnc3F)cc21 [Compound 31]
IC50 [1, 5]: 260 nM | IC50 [2, 6]: 350 nM

O=C1C(=O)N(Cc2ccccc2)c2ccc(-c3ccccc3)cc21 [Compound 32]
IC50 [1, 5]: 4100 nM | IC50 [2, 6]: 1900 nM

O=C1/C(=N/O)c2cc(-c3cccnc3)ccc2N1Cc1ccccc1 [Compound 33]
IC50 [1, 5]: > 5000 nM | IC50 [2, 6]: > 5000 nM

CO/N=C1/C(=O)N(Cc2ccccc2)c2ccc(-c3cccnc3)cc21 [Compound 34]
IC50 [1, 5]: > 5000 nM | IC50 [2, 6]: > 5000 nM

O=C1C(=O)N(C/C=C/c2ccccc2)c2ccc(-c3cccc([N+](=O)[O-])c3)cc21 [Compound 101]
IC50 [1, 7]: 2100 nM | IC50 [2, 8]: 2200 nM

O=C1C(=O)N(Cc2ccccn2)c2ccc(-c3cccnc3)cc21 [Compound 102]
IC50 [1, 9]: 4100 nM | IC50 [2, 10]: 3700 nM

O=C1C(=O)N(Cc2ccccn2)c2ccc(-c3cccnc3)cc21 [Compound 103]
IC50 [1, 7]: 4300 nM | IC50 [2, 8]: 4400 nM

O=C1C(=O)N(CCCc2cccnc2)c2ccc(-c3cccnc3)cc21 [Compound 104]
IC50 [1, 9]: 910 nM | IC50 [2, 10]: 2100 nM

O=C1C(=O)N(CCCc2cccnc2)c2ccc(-c3cccnc3)cc21 [Compound 105]
IC50 [1, 9]: 2500 nM | IC50 [1, 11]: 4600 nM | IC50 [2, 10]: 4800 nM | IC50 [2, 12]: 4700 nM

O=C1C(=O)N(C/C=C/c2ccncc2)c2ccc(-c3cccnc3)cc21 [Compound 106]
IC50 [1, 7]: 740 nM | IC50 [2, 8]: 1400 nM

O=C1C(=O)N(C/C=C/c2ccncc2)c2ccc(-c3cccnc3)cc21 [Compound 107]
IC50 [1, 9]: 960 nM | IC50 [1, 11]: 740 nM | IC50 [2, 10]: 2000 nM | IC50 [2, 12]: 1600 nM

O=C1C(=O)N(C/C=C/c2cccnc2)c2ccc(-c3cccnc3)cc21 [Compound 108]
IC50 [1, 7]: 450 nM | IC50 [2, 8]: 500 nM

O=C1C(=O)N(C/C=C/c2ccccn2)c2ccc(-c3cccnc3)cc21 [Compound 110]
IC50 [1, 7]: 470 nM | IC50 [2, 8]: 580 nM

O=C1C(=O)N(C/C=C/c2ccccn2)c2ccc(-c3cccnc3)cc21 [Compound 111]
IC50 [1, 9]: 480 nM | IC50 [1, 11]: 500 nM | IC50 [2, 10]: 580 nM | IC50 [2, 12]: 840 nM

CCN(CCN1C(=O)C(=O)c2cc(-c3cccnc3)ccc21)c1ccccc1 [Compound 112]
IC50 [1, 7]: > 5000 nM | IC50 [2, 8]: > 5000 nM

CCN(CCN1C(=O)C(=O)c2cc(-c3cccnc3)ccc21)c1ccccc1 [Compound 113]
IC50 [1, 11]: > 5000 nM | IC50 [2, 12]: > 5000 nM

O=C1C(=O)N(C/C=C/c2ccc3ccccc3n2)c2ccc(-c3cccnc3)cc21 [Compound 114]
IC50 [1, 7]: 1000 nM | IC50 [2, 8]: 650 nM

O=C1C(=O)N(C/C=C/c2ccc3ccccc3n2)c2ccc(-c3cccnc3)cc21 [Compound 115]
IC50 [1, 9]: 1400 nM | IC50 [1, 11]: 1900 nM | IC50 [2, 10]: 680 nM | IC50 [2, 12]: 1900 nM

O=C1C(=O)N(C/C=C/c2cccnc2Cl)c2ccc(-c3cccnc3)cc21 [Compound 116]
IC50 [1, 7]: 660 nM | IC50 [2, 8]: 390 nM

O=C1C(=O)N(Cc2ccccc2I)c2ccc(-c3cccnc3)cc21 [Compound 117]
IC50 [1, 7]: 3400 nM | IC50 [2, 8]: 1900 nM

O=C1C(=O)N(Cc2ccccc2-c2cccnc2)c2ccc(-c3cccnc3)cc21 [Compound 118]
IC50 [1, 7]: > 5000 nM | IC50 [2, 8]: 3300 nM

O=C1C(=O)N(Cc2cccc(-c3cccnc3)c2)c2ccc(-c3cccnc3)cc21 [Compound 119]
IC50 [1, 7]: 2300 nM | IC50 [2, 8]: 1400 nM

O=C1C(=O)N(Cc2cccc(-c3cccnc3)c2)c2ccc(-c3cccnc3)cc21 [Compound 120]
IC50 [1, 9]: 2300 nM | IC50 [1, 11]: 4100 nM | IC50 [2, 10]: 1200 nM | IC50 [2, 12]: 1900 nM

O=C1C(=O)N(Cc2ccc(I)cc2)c2ccc(-c3cccnc3)cc21 [Compound 121]
IC50 [1, 7]: 500 nM | IC50 [2, 8]: 350 nM

O=C1C(=O)N(Cc2ccc(-c3cccnc3)cc2)c2ccc(-c3cccnc3)cc21 [Compound 122]
IC50 [1, 7]: 580 nM | IC50 [2, 8]: 380 nM

O=C1C(=O)N(Cc2ccc(-c3cccnc3)cc2)c2ccc(-c3cccnc3)cc21 [Compound 123]
IC50 [1, 9]: 600 nM | IC50 [1, 11]: 2300 nM | IC50 [2, 10]: 380 nM | IC50 [2, 12]: 800 nM
